Experimental data reported in patent US8501238B2, “Anti-infective agents and uses thereof” (priority 2007, dated 2013).
Like-named read-outs stand apart in the source and are kept apart here.

Experiments:
[1] = target: T1, HCV polymerase 1A (Δ21 NS5B) (Hepatitis C virus genotype 1a, UniProt P27958); assay: HCV Polymerase Inhibition Assay (1a); format: biochemical
T1 construct: 20 to 50nM Δ21 NS5B
Description: The reaction was initiated by the addition of 20μM CTP, 20μM ATP, 1μM ^3H-UTP (10mCi/umol), 5nM template RNA and 0.1 U/μl RNase inhibitor (RNasin, Promega), and allowed to proceed for 2 to 4h at room temperature. Reaction volume was 50μl. The reaction was terminated by the addition of 1 volume of 4mM spermine in 10mM Tris-Cl pH 8.0, 1mM EDTA. After incubation for at least 15 min at room temperature, the precipitated RNA was captured by filtering through a GF/B filter (Millipore) in a 96 well format. The filter plate was washed three times with 200μl each of 2mM spermine, 10mM Tris-Cl pH 8.0, lmM EDTA, and 2 times with ethanol. After air-drying, 30μl of Microscint 20 scintillation cocktail (Packard) was added to each well, and the retained cpm were determined by scintillation counting. […] Retained cpm were plotted vs. inhibitor concentration and fit to equation 1 using non-linear regression (ref. 1) to obtain the IC50 values: Retained cpm=A[sqrt{(IC50+It−Et)^2+4*IC50*Et}−([…])]
Ref. Morrison, J. F. and S. R. Stone. […] Approaches to the study and analysis of the inhibition of enzymes by slow- and tight-binding inhibitors. Comments Mol. Cell. Biophys.
(§1) The sequence of the template RNA used was: 5′-[…]-3′

[2] = target: T2, HCV polymerase 1B (Δ21 NS5B) (Hepatitis C virus genotype 1b, UniProt P26663); assay: biochemical
T2 construct: 20 to 50nM Δ21 NS5B
Description: Either two-fold serial dilutions (fractional inhibition assay) or a narrower range of dilutions spanning the IC50 of the inhibitor (tight binding assay) of the inhibitors were incubated with 20mM Tris-Cl pH 7.4, 2 mM MnCl2, 1 mM dithiothreitol, 1 mM ethylene diamine tetraacetic acid (EDTA), 60 to 125μM GTP and 20 to 50nM Δ21 NS5B (HCV Strain 1B (BK, Genbank accession number M58335, or H77, Genbank accession number AF011751)) for 15min at room temperature. The reaction was initiated by the addition of 20μM CTP, 20μM ATP, 1μM ^3H-UTP (10mCi/umol), 5nM template RNA and 0.1 U/μl RNase inhibitor (RNasin, Promega), and allowed to proceed for 2 to 4h at room temperature. Reaction volume was 50μl. The reaction was terminated by the addition of 1 volume of 4mM spermine in 10mM Tris-Cl pH 8.0, 1mM EDTA. After incubation for at least 15 min at room temperature, the precipitated RNA was captured by filtering through a GF/B filter (Millipore) in a 96 well format. The filter plate was washed three times with 200μl each of 2mM spermine, 10mM Tris-Cl pH 8.0, lmM EDTA, and 2 times with ethanol. After air-drying, 30μl of Microscint 20 scintillation cocktail (Packard) was added to each well, and the retained cpm were determined by scintillation counting. […] Retained cpm were plotted vs. inhibitor concentration and fit to equation 1 using non-linear regression (ref. 1) to obtain the IC50 values: Retained cpm=A[sqrt{(IC50+It−Et)^2+4*IC50*Et}−([…])]
Ref. Morrison, J. F. and S. R. Stone. 1985. Approaches to the study and analysis of the inhibition of enzymes by slow- and tight-binding inhibitors. Comments Mol. Cell. Biophys. 2: 347-368.
as §1

[3] = tested on: genotype 1a-H77 subgenomic replicon cell line; assay: microbe, parasite or virus in culture; format: cell-based, HCV; conditions: Hepatitis C virus, 72 h, read-out: EC50 1a
[4] = tested on: genotype 1b-Con1 subgenomic replicon cell line; assay: microbe, parasite or virus in culture; format: cell-based, HCV; conditions: Hepatitis C virus, 72 h, read-out: EC50 1b

T2 sequence (P26663 2420-2989, stated change not applied): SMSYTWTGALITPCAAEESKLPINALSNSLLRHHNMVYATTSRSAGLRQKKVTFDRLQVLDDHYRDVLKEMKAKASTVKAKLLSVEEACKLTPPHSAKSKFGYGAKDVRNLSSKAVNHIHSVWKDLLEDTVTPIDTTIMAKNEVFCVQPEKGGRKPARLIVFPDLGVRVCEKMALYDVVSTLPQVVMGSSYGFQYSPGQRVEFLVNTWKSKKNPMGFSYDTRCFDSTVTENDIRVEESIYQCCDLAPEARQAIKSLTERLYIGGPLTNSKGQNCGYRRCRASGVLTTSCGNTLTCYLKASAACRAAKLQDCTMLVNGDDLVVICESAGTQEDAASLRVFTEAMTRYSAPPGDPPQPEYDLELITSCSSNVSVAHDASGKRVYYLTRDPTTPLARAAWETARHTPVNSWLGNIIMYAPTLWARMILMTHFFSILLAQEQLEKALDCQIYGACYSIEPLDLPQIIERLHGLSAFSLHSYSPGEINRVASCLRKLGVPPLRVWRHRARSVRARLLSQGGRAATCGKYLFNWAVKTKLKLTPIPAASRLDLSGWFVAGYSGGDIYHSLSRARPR
T1 sequence (P27958 2421-2990, stated change not applied): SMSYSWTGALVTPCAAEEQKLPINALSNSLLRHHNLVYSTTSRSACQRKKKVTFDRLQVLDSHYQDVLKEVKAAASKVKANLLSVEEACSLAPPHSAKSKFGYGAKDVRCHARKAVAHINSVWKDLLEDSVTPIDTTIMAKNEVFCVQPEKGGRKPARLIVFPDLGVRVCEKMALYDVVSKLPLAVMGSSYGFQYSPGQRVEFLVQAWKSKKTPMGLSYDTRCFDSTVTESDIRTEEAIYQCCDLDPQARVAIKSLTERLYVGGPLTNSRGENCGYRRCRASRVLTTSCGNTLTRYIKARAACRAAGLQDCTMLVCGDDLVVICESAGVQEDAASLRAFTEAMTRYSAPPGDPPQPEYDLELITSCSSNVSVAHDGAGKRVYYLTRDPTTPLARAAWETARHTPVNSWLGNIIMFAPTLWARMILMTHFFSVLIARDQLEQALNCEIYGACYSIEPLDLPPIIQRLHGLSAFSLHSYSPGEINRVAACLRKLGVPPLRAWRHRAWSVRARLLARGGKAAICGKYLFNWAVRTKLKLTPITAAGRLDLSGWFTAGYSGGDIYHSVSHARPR

COc1c(-c2nc3cc(NS(C)(=O)=O)ccc3[nH]2)cc(N2CCC(=O)NC2=O)cc1C(C)(C)C [IA-L0-2.1, N-(2-(3-tert-butyl-5-(2,4-dioxotetrahydropyrimidin-1(2H)-yl)-2-methoxyphenyl)-1H-benzo[d]imidazol-5-yl)methanesulfonamide]
IC50 [1]: 100 to 1000 nM
IC50 [2]: 100 to 1000 nM
EC50 [3]: > 1000 nM
EC50 [4]: > 1000 nM

COc1c(-c2nc3ccc(NS(C)(=O)=O)cc3s2)cc(N2CCC(=O)NC2=O)cc1C(C)(C)C [IA-L0-2.2, N-(2-(3-tert-butyl-5-(2,4-dioxotetrahydropyrimidin-1(2H)-yl)-2-methoxyphenyl)benzo[d]thiazol-6-yl)methanesulfonamide]
IC50 [1]: 10 to 100 nM
IC50 [2]: 10 to 100 nM
EC50 [3]: 100 to 1000 nM
EC50 [4]: 10 to 100 nM

COc1c(-c2nc3ccccc3s2)cc(N2CCC(=O)NC2=O)cc1C(C)(C)C [IA-L0-2.3, 1-(3-(benzo[d]thiazol-2-yl)-5-tert-butyl-4-methoxyphenyl)dihydro pyrimidine-2,4(1H,3H)-dione]
IC50 [1]: 100 to 1000 nM
IC50 [2]: 100 to 1000 nM
EC50 [3]: 100 to 1000 nM
EC50 [4]: 100 to 1000 nM

COc1c(-c2nc3cc(NS(C)(=O)=O)ccc3s2)cc(N2CCC(=O)NC2=O)cc1C(C)(C)C [IA-L0-2.4, N-(2-(3-tert-butyl-5-(2,4-dioxotetrahydropyrimidin-1(2H)-yl)-2-methoxyphenyl)benzo[d]thiazol-5-yl)methanesulfonamide]
IC50 [1]: 10 to 100 nM
IC50 [2]: 10 to 100 nM
EC50 [3]: > 1000 nM
EC50 [4]: 100 to 1000 nM

COc1c(-c2nc3ccc(NS(C)(=O)=O)cc3o2)cc(N2CCC(=O)NC2=O)cc1C(C)(C)C [IA-L0-2.5, N-(2-(3-tert-butyl-5-(2,4-dioxotetrahydropyrimidin-1(2H)-yl)-2-methoxyphenyl)benzo[d]oxazol-6-yl)methanesulfonamide]
IC50 [1]: 100 to 1000 nM
IC50 [2]: 100 to 1000 nM
EC50 [3]: > 1000 nM
EC50 [4]: > 1000 nM

COc1c(-c2nc3ccc([N+](=O)[O-])cc3o2)cc(N2CCC(=O)NC2=O)cc1C(C)(C)C [IA-L0-2.6, 1-(3-tert-butyl-4-methoxy-5-(6-nitrobenzo[d]oxazol-2-yl)phenyl) dihydropyrimidine-2,4(1H,3H)-dione]
IC50 [1]: 100 to 1000 nM
IC50 [2]: 100 to 1000 nM
EC50 [3]: > 1000 nM
EC50 [4]: > 1000 nM

COc1c(-c2nc3cc([N+](=O)[O-])ccc3o2)cc(N2CCC(=O)NC2=O)cc1C(C)(C)C [IA-L0-2.7, 1-(3-tert-butyl-4-methoxy-5-(5-nitrobenzo[d]oxazol-2-yl)phenyl) dihydropyrimidine-2,4(1H,3H)-dione]
IC50 [1]: 100 to 1000 nM
IC50 [2]: 100 to 1000 nM
EC50 [3]: > 1000 nM
EC50 [4]: 100 to 1000 nM

COc1c(-c2nc3cc(NS(C)(=O)=O)ccc3o2)cc(N2CCC(=O)NC2=O)cc1C(C)(C)C [IA-L0-2.8, N-(2-(3-tert-butyl-5-(2,4-dioxotetrahydropyrimidin-1(2H)-yl)-2-methoxyphenyl)benzo[d]oxazol-5-yl)methanesulfonamide]
IC50 [1]: 10 to 100 nM
IC50 [2]: 10 to 100 nM
EC50 [3]: 100 to 1000 nM
EC50 [4]: 10 to 100 nM

COc1c(-c2ccc3cc(NS(C)(=O)=O)ccc3c2)cc(N2CCC(=O)NC2=O)cc1C(C)(C)C [IA-L0-2.9, N-(6-(3-tert-butyl-5-(2,4-dioxotetrahydropyrimidin-1(2H)-yl)-2-methoxyphenyl)naphthalen-2-yl)methanesulfonamide]
IC50 [1]: < 10 nM
IC50 [2]: < 10 nM
EC50 [3]: < 10 nM
EC50 [4]: < 10 nM

COc1c(-c2ccc3ccccc3c2)cc(-n2ccc(=O)[nH]c2=O)cc1C(C)(C)C [IB-L0-2.1, 1-(3-tert-butyl-4-methoxy-5-(naphthalen-2-yl)phenyl)pyrimidine-2,4(1H,3H)-dione]
IC50 [1]: 100 to 1000 nM
IC50 [2]: 100 to 1000 nM
EC50 [3]: > 1000 nM
EC50 [4]: 100 to 1000 nM

COc1ccc2cc(-c3cc(-n4ccc(=O)[nH]c4=O)cc(C(C)(C)C)c3OC)ccc2c1 [IB-L0-2.2, 1-(3-tert-butyl-4-methoxy-5-(6-methoxynaphthalen-2-yl)phenyl)pyrimidine-2,4(1H,3H)-dione]
IC50 [1]: 100 to 1000 nM
IC50 [2]: 100 to 1000 nM
EC50 [3]: > 1000 nM
EC50 [4]: > 1000 nM

COc1c(-c2ccc3cc(NS(C)(=O)=O)ccc3c2)cc(-n2ccc(=O)[nH]c2=O)cc1C(C)(C)C [IB-L0-2.3, N-(6-(3-tert-butyl-5-(2,4-dioxo-3,4-dihydropyrimidin-1(2H)-yl)-2-methoxyphenyl)naphthalen-2-yl)methanesulfonamide]
IC50 [1]: < 10 nM
IC50 [2]: < 10 nM
EC50 [3]: < 10 nM
EC50 [4]: < 10 nM

COc1c(-c2ccc3c(c2)CC/C3=N\NS(C)(=O)=O)cc(-n2ccc(=O)[nH]c2=O)cc1C(C)(C)C [IB-L0-2.4, (E)-N′-(5-(3-tert-butyl-5-(2,4-dioxo-3,4-dihydropyrimidin-1(2H)-yl)-2-methoxyphenyl)-2,3-dihydro-1H-inden-1-ylidene)methanesulfonohydrazide]
IC50 [1]: < 10 nM
IC50 [2]: < 10 nM
EC50 [4]: < 10 nM

COc1c(-c2ccc3nc(NS(C)(=O)=O)ccc3c2)cc(-n2ccc(=O)[nH]c2=O)cc1C(C)(C)C [IB-L0-2.5, N-(6-(3-tert-butyl-5-(2,4-dioxo-3,4-dihydropyrimidin-1(2H)-yl)-2-methoxyphenyl)quinolin-2-yl)methanesulfonamide]
IC50 [1]: 10 to 100 nM
IC50 [2]: 10 to 100 nM
EC50 [3]: 10 to 100 nM
EC50 [4]: < 10 nM

COc1c(-c2nc3cc(NS(C)(=O)=O)ccc3o2)cc(-n2ccc(=O)[nH]c2=O)cc1C(C)(C)C [IB-L0-2.6, N-(2-(3-tert-butyl-5-(2,4-dioxo-3,4-dihydropyrimidin-1(2H)-yl)-2-methoxyphenyl)benzo[d]oxazol-5-yl)methanesulfonamide]
IC50 [1]: 10 to 100 nM
IC50 [2]: 10 to 100 nM
EC50 [3]: 100 to 1000 nM
EC50 [4]: 10 to 100 nM

CC(C)(C)c1cc(-c2ccc3cc(NS(C)(=O)=O)ccc3c2)cc(-n2ccc(=O)[nH]c2=O)c1 [IB-L0-2.8, N-(6-(3-tert-butyl-5-(2,4-dioxo-3,4-dihydropyrimidin-1(2H)-yl)phenyl)naphthalen-2-yl)methanesulfonamide]
IC50 [1]: 10 to 100 nM
IC50 [2]: 10 to 100 nM
EC50 [4]: 10 to 100 nM

COc1c(-c2ccc3c(c2)CC[C@]3(F)CNS(C)(=O)=O)cc(-n2ccc(=O)[nH]c2=O)cc1C(C)(C)C [IB-L0-2.10, (R)-N-((5-(3-tert-butyl-5-(2,4-dioxo-3,4-dihydropyrimidin-1 (2H)-yl)-2-methoxyphenyl)-1-fluoro-2,3-dihydro-1H-inden-1-yl)methyl)methanesulfonamide]
IC50 [1]: < 10 nM
IC50 [2]: 10 to 100 nM
EC50 [3]: < 10 nM
EC50 [4]: < 10 nM

COc1c(N2CCc3cc(NS(C)(=O)=O)ccc3C2)cc(-n2ccc(=O)[nH]c2=O)cc1C(C)(C)C [IB-L0-2.19, N-(2-(3-tert-butyl-5-(2,4-dioxo-3,4-dihydropyrimidin-1(2H)-yl)-2-methoxyphenyl)-1,2,3,4-tetrahydroisoquinolin-6-yl)methanesulfonamide]
IC50 [1]: < 10 nM
IC50 [2]: 10 to 100 nM
EC50 [3]: 10 to 100 nM
EC50 [4]: 10 to 100 nM

COc1c(-c2ccc3nc(NC(C)=O)sc3c2)cc(-n2ccc(=O)[nH]c2=O)cc1C(C)(C)C [IB-L0-2.49, N-(6-(3-tert-butyl-5-(2,4-dioxo-3,4-dihydropyrimidin-1(2H)-yl)-2-methoxyphenyl)benzo[d]thiazol-2-yl)acetamide]
IC50 [1]: > 1000 nM
IC50 [2]: > 1000 nM

N,N′-(6,6′-(5-(2,4-dioxo-3,4-dihydropyrimidin-1(2H)-yl)-2-methoxy-1,3-phenylene) bis(naphthalene-6,2-diyl))dimethanesulfonamide [IB-L0-2.76]
IC50 ([1]; HCV polymerase 1a, read-out: IC50 1a): 100 to 1000 nM
IC50 ([2]; HCV polymerase 1b, read-out: IC50 1b): > 1000 nM
